Publication PMC8878107, “Human Enterovirus B: Selective Inhibition by Quinoxaline Derivatives and Bioinformatic RNA-Motif Identification as New Targets” (Pharmaceuticals, 2022)

Legend:
[1] = Cytotoxicity, MTT method, mock-infected Vero-76 cells; format: cell-based; conditions: African green monkey (Cercopithecus aethiops), concentration reducing viability of mock-infected Vero-76 cells by 50%, read-out: CC50 Vero76
Method: (§1) HeLa cells were seeded in 96-well plates at a density of 5 × 10^5 cells/mL, in minimum essential medium with Earle’s salts (MEM-E), L-glutamine, 1 mM sodium pyruvate, and 25 mg/L kanamycin, supplemented with 10% fetal bovine serum (FBS). Vero-76 and LLC-MK2 cells were seeded in 96-well plates at a density of 5 × 10^5 cells/mL in Dulbecco’s modified eagle medium (D-MEM) with L-glutamine and 25 mg/L kanamycin, complemented with 10% FBS. Cell cultures were then incubated in a humidified, 5% CO2 atmosphere at 37 °C, with or without serial dilutions of analyzed compounds. The medium used for the cytotoxic assay, as well as for antiviral assays, included 1% of the proper serum. Cell viability was determined after 72–120h at 37 °C by MTT method.
(§2) The size of cell growth/viability and viral multiplication at each tested drug concentration was expressed as percentage of untreated controls. Concentrations resulting in 50% inhibition (CC50 or EC50) were determined by linear regression analysis.

[2] = Cytotoxicity, MTT method, mock-infected HeLa cells; format: cell-based; conditions: human, concentration reducing viability of mock-infected HeLa cells by 50%
Method: as §1, §2

[3] = Cytotoxicity, MTT method, mock-infected LLC-MK2 cells; format: cell-based; conditions: rhesus monkey, concentration reducing viability of mock-infected LLC-MK2 cells by 50%
Method: as §1, §2

[4] = system: CVB4; assay: Plaque-reduction assay, CVB4 in Vero-76 cells; format: cell-based, human enterovirus B
Method: (§3) The activity of compounds against EV-A71 and D68 was based on inhibition of virus-induced cytopathogenicity in HeLa and Vero-76 cells, respectively, acutely infected at a multiplicity of infection (m.o.i.) of 0.01. After a 72 or 120 h incubation at 37 °C, cell viability was verified by the MTT method, as previously described. The activity of compounds against CVB3, CVB4, CVB5, and E9 was determined in infected cell monolayers by plaque-reduction assays, as previously reported. Briefly, the monolayer of Vero-76 cells or LLC-MK2 (E9) was grown overnight on a 24-well plate. The cells were then infected for 2 h with 250 μL of proper virus dilutions to obtain 50–100 PFU/well. Following removal of the unadsorbed virus, 500 μL of the medium (D-MEM with L-glutamine, 4500 mg/L D-glucose, and 1% inactivated FBS) containing 0.75% methyl-cellulose, with serial dilutions of quinoxalines, was added. The overlay was also added to untreated wells (non-infection controls). Cultures were incubated at 37 °C for 3 (CVB3, CVB4, CVB5) or 5 days (E9) and then fixed with PBS containing 50% ethanol and 0.8% crystal violet, washed and air-dried. Plaques were then counted.
as §2

[5] = system: CVB3; assay: Plaque-reduction assay, CVB3 in Vero-76 cells; format: cell-based, human enterovirus B
Method: as §3, §2

[6] = system: E9; assay: Plaque-reduction assay, E9 in LLC-MK2 cells; format: cell-based, human enterovirus B; conditions: Enterovirus B; for EC50: concentration reducing plaque number by 50%
Method: as §3, §2

[7] = system: EV-A71; assay: Inhibition of EV-A71-induced cytopathogenicity, MTT method; format: cell-based, human enterovirus A71; conditions: Enterovirus A, EVA71, 96 h, 50% protection of Vero-76 cells from EV-A71-induced cytopathogenicity, day 4/5 p.i.
[8] = system: EV-D68; assay: Inhibition of EV-D68-induced cytopathogenicity, MTT method; format: cell-based, human enterovirus D 68; conditions: Enterovirus D, EVD68, 72 h; HeLa cells, MTT method after 3 days p.i.
Method: as §3, with “After” for “The activity of compounds against EV-A71 and D68 was based on inhibition of virus-induced cytopathogenicity in HeLa and Vero-76 cells, respectively, acutely infected at a multiplicity of infection (m.o.i.) of 0.01. After”
as §2

[9] = system: CVB4; assay: Virus yield reduction assay (YRA), CVB4 in Vero-76 cells; format: cell-based, human enterovirus B; conditions: m.o.i. 0.1, 72 h
Method: (§4) Vero-76 and LL-MKC cells were inoculated with CVB3, CVB4, or E9 at an m.o.i. of 0.1 in maintenance medium and compounds at non-cytotoxic concentrations. After the adsorption period (2 h) at 37 °C and 5% CO2, the inoculum was removed and replaced with fresh medium containing the same concentration of compounds. After 72 h for CVB3 and CVB4 or 120 h for E9 at 37 °C and 5% CO2, each sample was collected and diluted with serial passages, starting from 10^−1, up to 10^−10. The titers of the supernatants were quantified by standard plaque assay. NM 107 (2’-C-Methyl-Cytidine) and pleconaril were employed as reference compounds.

[10] = system: CVB3; assay: Virus yield reduction assay (YRA), CVB3 in Vero-76 cells; format: cell-based, human enterovirus B; conditions: m.o.i. 0.1, 72 h; for Reduction of CVB3 viral titers (trend over concentrations): non-cytotoxic concentrations (100, 20, 4, 0.8 µM)
Method: as §4

[11] = system: CVB3; assay: Adsorption assay, CVB3 in Vero-76 cells; format: cell-based, human enterovirus B; conditions: 20 µM, 2 h at 4 °C, m.o.i. 0.1, Vero-76 cells
Method: (§5) Vero-76 cells were incubated with CVB3 and CVB4 (m.o.i. = 0.1) and derivatives 6 or 7 for 2 h at 4 °C, using compound concentrations of 20 µM. […] LLC-MK2 cells were incubated with E9 and derivative 8 (Figure 3e) under the above-described experimental conditions. To identify the replication stage inhibited by quinoxaline derivatives, we performed a time-of-drug addiction assay (T.O.A.) (Figure 3a–e). Experiments were carried out on CVB3-, CVB4-,and E9-infected cells (m.o.i. = 1) treated with compounds (20 µM) at different step times of infection until 12 h post-infection, followed by virus titer determination by plaque assay.
(§6) Vero-76 and LLC-MK2 cells grown in 24-well plates were infected with CVB3, CVB4, and E9, at an m.o.i. of 0.1, with or without test compounds, and incubated for 120 min at 4 °C. Medium containing unbound virus was then removed, and cells were washed twice with PBS and overlayed with fresh medium. Plaques were counted after 72 h of incubation at 37 °C.

[12] = system: CVB4; assay: Adsorption assay, CVB4 in Vero-76 cells; format: cell-based, human enterovirus B; conditions: 20 µM, 2 h at 4 °C, m.o.i. 0.1, Vero-76 cells
Method: as §5, §6

[13] = system: E9; assay: Virus yield reduction assay (YRA), E9 in LLC-MK2 cells; format: cell-based, human enterovirus B
Method: as §4

[14] = Enterovirus B, CVB4, Vero 76, concentration reducing plaque number by 50%
[15] = Enterovirus B, CVB4, Vero 76, concentration reducing plaque number by 90%
[16] = Enterovirus B, CVB3, Vero 76, concentration reducing plaque number by 50%
[17] = Enterovirus B, CVB3, Vero 76, concentration reducing plaque number by 90%
[18] = concentration reducing plaque number by 50%
[19] = concentration reducing plaque number by 90%

| EC50 [4, 14] [µM] | EC90 [4, 15] [µM] | EC50 [5, 16] [µM] | EC90 [5, 17] [µM] | EC50 [5, 18] [µM] | EC50 [6] [µM] | SMILES | CC50 [1] [µM] | CC50 [2] [µM] | CC50 [3] [µM] | EC50 [7] [µM] | EC50 [8] [µM] | Reduction of CVB3 viral titers (trend over concentrations) [10] | CVB3 virus titer in comparison to the untreated infected control [11] | CVB4 virus titer in comparison to the untreated infected control [12] | other results |
| --- | --- | --- | --- | --- | --- | --- | --- | --- | --- | --- | --- | --- | --- | --- | --- |
| 1.7 | 12 | 2 to 3 | 12 | 2.5 | > 100 | CCOC(=O)c1ccc(SCc2ccc3nc(OC)c(OC)nc3c2)cc1 [Compound 6] | > 100 | > 100 | > 100 | > 100 | > 100 | same trend of reduction in viral loads | detectable reduction of the virus titer | detectable reduction of the virus titer | EC90 [5, 19]: 13 µM; Reduction of CVB4 viral titers ([9]; 0.8 µM): 2 logs; Reduction of CVB4 viral titers ([9]; 4 µM): 2.5 logs; Effect on CVB4 viral titers ([9]; 100 and 20 µM): complete suppression |
| 1.5 | 3 | 2 to 3 | 14 | 2 | > 100 | COc1nc2ccc(CSc3ccc(C(=O)O)cc3)cc2nc1OC [Compound 7] | 100 | 95 | 100 | > 100 | > 95 | dose-dependent reduction of viral titers | detectable reduction of the virus titer | detectable reduction of the virus titer | EC50 [4, 18]: 1.45 µM; EC90 [4, 19]: 3.2 µM; Inhibition of CVB4 ([9]; 0.8 µM): no significant inhibition; Production of CVB4 virus ([9]; 100, 20, and 4 µM): completely inhibited; Reduction in CVB3 viral load ([10]; 4 µM): one log reduction in viral load |
| > 100 | – | > 100 | – | – | 6 | CCOC(=O)c1ccc(SCc2ccc3nc(OC)c(OC)nc3c2)nc1 [Compound 8] | > 100 | > 100 | > 100 | > 100 | 50 | – | – | – | EC90 [6, 19]: 16 µM; Effect on E9 viral replication ([13]; 100 and 20 µM, m.o.i. 0.1, 120 h): completely suppressed viral replication; Reduction in E9 viral loads ([13]; lower concentrations (below 20 µM)): no reduction in viral loads |
| > 100 | – | 100 | – | – | 55 | COc1nc2ccc(CSc3ccc(C(=O)O)cn3)cc2nc1OC [Compound 9] | 100 | > 100 | 100 | > 100 | 70 | – | – | – | – |
| – | – | 29 ± 3 | – | – | – | C[C@@]1(O)[C@H](O)[C@@H](CO)O[C@H]1n1ccc(N)nc1=O [NM107, 2′-C-methylcytidine, reference compound] | > 100 | – | – | 6 ± 1 | – | – | – | – | – |
| 2 ± 1 | – | – | – | – | 0.1 ± 0.05 | Cc1cc(CCCOc2c(C)cc(-c3noc(C(F)(F)F)n3)cc2C)on1 [PLe, Pleconaril, reference compound] | > 100 | > 100 | > 100 | – | 0.4 ± 0.2 | – | – | – | – |
